# Source: patent US20100330029A1, “Cancer Treatments with Radiation and Immunocytokines” (Merck Patent GmbH, priority 2008, published 2010)
# System: malignant melanoma
# Experiment: study in cutaneous/subcutaneous malignant melanoma
# Format: in vivo
# Conditions: human melanoma; EMD521873 0.3 mg/kg and local radiation vs EMD521873 only
# Method: A study is performed to investigate the responses of cutaneous metastases in patients with stage IIIb-IV cutaneous/subcutaneous malignant melanoma to EMD521873 at the tumor site and in blood to EMD521873 in combination with local irradiation (25 Gy). The first treatment cycle with EMD521873 starts on day 1. Subsequent cycles are administered at 3-week intervals. Prior to the first dose of EMD521873, subjects are treated with two courses of local radiation (25 Gy) administered in fractions of 5 Gy on 5 consecutive days ([…]; and days −7 to −3) to different metastases.
# For each patient, at least two cutaneous or subcutaneous lesions eligible for biopsy are selected for potential radiation (lesion A1 and lesion A2) and, if present, a third lesion (lesion A3) is also selected. A biopsy of a cutaneous/subcutaneous lesion (lesion A1) and blood sampling are performed at baseline (D-28). After 7 days, allowing for the necessary healing of the biopsy area, lesion A1 is irradiated (5×5 Gy) over 5 consecutive days starting on day −21 (D−21 to D−17). On day −7 (D−7) blood samples are withdrawn and a biopsy of the irradiated lesion A1 is taken. This tumor sample serves as an intraindividual control to assess the effect of radiation alone. On day −14, the pre-selected lesions A2 and A3 are also biopsied and blood drawn. […]
substance,measurement,value
dI-NHS76γ2(h)(FN>AQ)-ala-IL2(D20T) [EMD521873],tumor progression (PET or CT scan),reduced tumor progression
